According to patent US12030876B2, “Aryl hydrocarbon receptor (AHR) agonists and uses thereof” (Ikena Oncology, Inc., priority 2019, dated 2024):

Assays:
AHR [1] = target: T1, AHR (Mus musculus, UniProt P30561); assay: P450 CYP1A1 Luciferase Assay, Hepa1.6 (agonist); assay type: cell-based, murine; conditions: Hepa1.6, Table 2
T1 sequence (P30561 1-848 F348L/P471L): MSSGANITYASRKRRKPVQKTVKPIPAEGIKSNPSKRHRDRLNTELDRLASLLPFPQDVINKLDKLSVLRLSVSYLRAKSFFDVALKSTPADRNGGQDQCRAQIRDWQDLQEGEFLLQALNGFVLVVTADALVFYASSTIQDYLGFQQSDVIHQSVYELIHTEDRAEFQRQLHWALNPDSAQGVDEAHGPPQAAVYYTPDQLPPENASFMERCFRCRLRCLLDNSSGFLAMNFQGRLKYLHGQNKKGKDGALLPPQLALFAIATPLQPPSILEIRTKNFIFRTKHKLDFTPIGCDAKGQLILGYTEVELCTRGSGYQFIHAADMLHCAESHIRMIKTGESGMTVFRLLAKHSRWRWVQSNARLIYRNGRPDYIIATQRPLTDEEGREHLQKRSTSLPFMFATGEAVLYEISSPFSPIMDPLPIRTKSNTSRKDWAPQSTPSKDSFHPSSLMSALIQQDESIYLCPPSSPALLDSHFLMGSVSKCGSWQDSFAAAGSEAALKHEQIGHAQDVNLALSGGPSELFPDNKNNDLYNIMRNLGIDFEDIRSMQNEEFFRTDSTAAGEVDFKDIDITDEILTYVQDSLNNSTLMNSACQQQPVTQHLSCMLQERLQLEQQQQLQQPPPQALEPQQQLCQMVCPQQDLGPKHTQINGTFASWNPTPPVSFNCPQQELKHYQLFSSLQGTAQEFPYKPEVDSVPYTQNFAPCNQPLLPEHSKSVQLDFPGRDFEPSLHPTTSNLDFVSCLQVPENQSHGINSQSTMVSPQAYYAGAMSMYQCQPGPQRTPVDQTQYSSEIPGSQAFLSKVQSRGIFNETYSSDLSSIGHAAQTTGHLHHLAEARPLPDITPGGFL
In short: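 Murine Hepa1-6 (or other murine/human lines) treated with agonist for 6, 16 or 24 h, then lysed and incubated with luminogenic CYP1A1 substrate (e.g. Luciferin-CEE). Luminescence normalised between no-ligand minimum and reference AHR ligand maximum; EC50 is concentration giving half-maximal activation.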

AHR [2] = target: T2, AHR (Homo sapiens, UniProt P35869); assay: DRE-Luciferase Reporter Assay, HepG2 (agonist); assay type: cell-based; conditions: HepG2, Table 2; read-out: DRE-Luc HepG2 - Agonist: Average EC50
T2 construct: endogenous in cells; host or cells: HepG2 (human), transfected with a DRE-luciferase reporter only
T2 sequence (P35869 11-848): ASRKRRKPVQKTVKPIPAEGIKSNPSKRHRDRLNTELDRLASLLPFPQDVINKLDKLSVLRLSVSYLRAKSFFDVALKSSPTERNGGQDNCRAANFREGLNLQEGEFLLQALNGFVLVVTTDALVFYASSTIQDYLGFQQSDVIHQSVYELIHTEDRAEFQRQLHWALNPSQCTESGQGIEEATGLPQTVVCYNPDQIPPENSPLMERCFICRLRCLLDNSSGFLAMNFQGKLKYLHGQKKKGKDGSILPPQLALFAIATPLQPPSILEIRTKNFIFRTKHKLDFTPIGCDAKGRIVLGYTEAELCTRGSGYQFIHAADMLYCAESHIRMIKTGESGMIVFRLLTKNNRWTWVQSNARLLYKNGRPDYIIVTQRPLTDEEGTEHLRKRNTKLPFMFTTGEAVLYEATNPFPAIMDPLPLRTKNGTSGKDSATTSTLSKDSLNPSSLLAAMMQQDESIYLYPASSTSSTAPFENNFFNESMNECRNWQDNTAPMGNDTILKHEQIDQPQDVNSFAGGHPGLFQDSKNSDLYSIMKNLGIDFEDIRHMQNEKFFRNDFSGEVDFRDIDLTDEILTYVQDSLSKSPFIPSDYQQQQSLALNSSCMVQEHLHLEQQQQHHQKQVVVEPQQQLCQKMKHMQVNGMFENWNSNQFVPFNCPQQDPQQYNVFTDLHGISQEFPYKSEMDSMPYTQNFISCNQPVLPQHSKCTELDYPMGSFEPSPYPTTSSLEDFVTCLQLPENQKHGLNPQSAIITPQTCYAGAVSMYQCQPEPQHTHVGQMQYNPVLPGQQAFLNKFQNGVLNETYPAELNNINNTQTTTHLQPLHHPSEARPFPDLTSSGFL
In short: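 Cells carrying a stably or transiently transfected DRE-luciferase reporter, plated overnight at 37 C, then given agonist for 6, 16 or 24 h before lysis and luciferase read-out. Signal scaled between no ligand (minimum) and activating ligand alone, e.g. TCDD (maximum); EC50 = concentration giving half-maximal luciferase activity.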

[3] = system: human Crohn's and ulcerative colitis tissue cultures

SMILES | EC50 (AHR [1]) [nM] | EC50 (AHR [2]) [nM] | cytokine release: IFN-γ, IL-17A, IL-1β, and TNF-α [3]
FC(F)(F)c1cccc(Nc2nc(-c3cccc(Cl)c3)cs2)c1 [Compound P-2] | 100 to 1000 | < 10 | –
Nc1cccc(-c2csc(Nc3cccc(C(F)(F)F)c3)n2)c1 [I-10] | 100 to 1000 | < 10 | decreases
